Measured values from patent US10806711B2 (priority 2011, dated 2020).
“Also recorded” adds a separate entry of the source.

Key:
[1] = tested on: mice with and without I/R injury; conditions: mouse, in vivo, po, 6.33 mg/kg/day
Description: The hearts were removed, rinsed with PBS, fixed with 3.7% buffered formaldehyde (after 30 minutes the buffer was changed) and dehydrated (hearts were placed in 70% ethanol after 18-24 hours). The samples were embedded in paraffin, sectioned into thicknesses of 6 μm, each 10 μm apart, and 2 heart sections were placed onto each slide. The slides were prepared using the in situ apoptosis detection kit, CardioTACS (Trevigen, Gaithersburg, Md.) according to the manufacturer's instructions. After staining, the slides were placed on a microscope (Olympus 1×71) and the number of apoptotic cells was counted by two separate and blinded readers in 5 fields of view for each heart section. The total number of cells was also determined for the same field, and the apoptotic cells were calculated to be a percentage of the total cells.
The water was changed twice a week and the volume was measured before and after consumption to determine the approximate dose. The mice were housed 2 to a cage for a more accurate assessment of total dose administered.

[2] = tested on: HL-1 cells; format: cell-based
Description: Cell Viability Assays—Cell viability was assessed using the ApoTox-Glo Triplex Assay (Promega, Madison, Wis.) per manufacturer's instructions. Briefly, HL-1 cells were seeded in 96 well plates at a density of 1×10^4 cells/well and allowed to grow overnight in Claycomb media supplemented with 10% FBS, 100 U/ml penicillin/streptomycin, and 2 mM L-glutamine. […] GF-AFC viability was then added to ApoTox-Glo Assay Buffer at a ratio of 10 μl GF-AFC to 2.0 ml Assay Buffer and 20 μl of this mixture was added to each well and cells were incubated at 37° C. for 30 minutes. Fluorescence was measured at 400 nm (ex)/505 nm (em) and the data was normalized to untreated control cells.

[3] = tested on: phospholamban (PLN) and the ryanodine receptor (RyR), NCX, SERCA2a; test: Western blot of calcium handling proteins in Langendorff hearts; design: species or system mouse
Description: Western Blot Analysis—WT hearts used for protein expression were isolated from control mice (C57, 12-16 weeks old) from the Langendorff experiments. Total protein for calcium handling proteins was isolated by homogenizing whole hearts in an ice-cold buffer containing (in mM): 80 Imidazole, 300 sucrose, 1 DTT, 10 sodium metabisulfite, the protease inhibitor cocktail P8340 (Sigma, St. Louis, Mo.) and the phosphatase inhibitor cocktail set II (EMD, Merck, Darmstadt, Germany). Protein concentrations were determined using the BCA Protein Assay kit (Pierce, Thermo Scientific, Rockford, Ill.). Aliquots of protein were separated on SDS-PAGE gels (Novex gels, Invitrogen, Eugene, Oreg.) and then transferred to nitrocellulose membranes (Bio-Rad, Hercules, Calif.) and blocked with 5% BSA. The membranes were analyzed with primary antibodies. When appropriate, the membranes were cut in half to allow two different primary antibodies to be used. The top half would be used for one of the Ca^2+ handling proteins and the bottom half (less than 60 kD) would be used for the normalization protein, actin. In circumstances where it wasn't appropriate to cut the membrane, as the two proteins were too close in size, the membranes were stripped after the first protein. Membranes were also stripped between primary antibodies for phosphorylated proteins and corresponding total protein.

[4] = tested on: subjects with uncomplicated congestive heart failure; conditions: 2 g/day or 4 g/day orally over several days; cited from earlier work
[5] = tested on: isolated ventricular myocytes; test: Whole-cell patch clamp Ca2+ current recording; format: cell-based, mouse; conditions: myocytes held at −70 mV, 0.1 μM
Description: Electrophysiological recordings—Isolated myocytes were perfused with a Na^+- and K^+-free solution containing (mM): tetraethylammonium chloride (TEA-Cl) 137, CsCl 5.4, CaCl2 2, MgCl2 1, HEPES 5, glucose 10 and 4-aminopyridine 3 (pH=7.4). Whole-cell patch clamp recordings were performed with an Axopatch-1B amplifier. For Ca^2+ current recordings, glass pipettes were filled with solution containing (mM): aspartic acid 115, CsOH 115, CsCl 20, EGTA 11, HEPES 10, MgCl2 2.5, Na-GTP 0.1, Mg-ATP 2 (pH adjusted to 7.2 with CsOH). Probenecid was dissolved in a Na^+- and K^+-free solution which was used to perfuse the myocytes. Data were collected using pCLAMP9 software through an Axon Digidata 1322A data acquisition system. All experiments were performed at room temperature (24° C.).

[6] = tested on: C57 WT mice; test: Echocardiographic evaluation of contractility (EF) after bolus IV probenecid; format: in vivo, mouse; conditions: for peak change in EF: WT mice
Description: Echocardiographic evaluation. In order to obtain a dose response curve, male C57 WT (n=39) mice 12-16 weeks of age were anesthetized with isoflurane while intravenous jugular access (IV) was obtained under a microscope as previously described. Subsequently, an echocardiographic study with both M-mode and B-mode was obtained in parasternal long axis (PSLAX) as described below. […] Echocardiography—All echocardiographic studies were performed with a Vevo 2100 Ultrasound system (Visualsonics, Toronto Calif.) with an MS400 probe (30 MHz centerline frequency) and were post-processed at a separate workstation with Vevostrain software (Vevo 2100, v1.1.1 B1455, Visualsonic, Toronto, Canada). Images were obtained from PSLAX and short axis (SAX) views at depths between 2 and 10 mm in both M-mode and B-mode. All studies on mice exposed to I/R injury included M-mode, B-mode in PSLAX and strain imaging in SAX. While for the contractility studies, only M-mode measurements were obtained from the PSLAX. Strain imaging was performed from the B-mode images and regional radial strain and circumferential displacement were measured by regional wall and summed average from the SAX images. From the M-mode images, left ventricular cavity size and wall thickness was measured and the ejection fraction (EF) and fractional shortening (FS) calculations were obtained using the Vevo software. The change in the EF, FS, as well as strain derived parameters was obtained by subtracting the baseline value from each individual subject against subsequent time-points. In addition, the average change from baseline for each time point between 5 and 30 minutes was determined for each mouse, with measurements being taken every 5 minutes. These averages were compared between the different groups.

[7] = tested on: mice after I/R injury; test: Ischemia/Reperfusion followed by probenecid bolus (echocardiography); format: in vivo, mouse
Description: Ischemia/Reperfusion methods—Mice were anesthetized with sodium pentobarbital and the heart exposed through a left thoracotomy at the level of the fourth intercostal space. The mice were intubated and placed on a mini-ventilator (Harvard apparatus, Holliston, Mass.). A loop occluder was placed around the left anterior descending artery (LAD), and tightened, occluding it for either 30 minutes or 45 minutes. After surgery, the thorocotomy was sutured in layers, and the animal was allowed to recover. Echocardiography methods—All echocardiographic studies were performed as previously described for Example 1. […] The mice were imaged at 5 minute intervals for a total of 30 minutes.

With `CCCN(CCC)S(=O)(=O)c1ccc(C(=O)O)cc1` [probenecid] as the compound, how does the “apoptosis in healthy mice” value [1] read?
Its value is “did not induce significant apoptosis”.

And the “cytotoxicity / cell death” value ([2]; increasing doses, 4, 8 or 24 hours following treatment)?
The value was “does not result in any detectable cytotoxicity; also recorded: no significant cell death”.

What about the “cell death in HL-1 cells (Example 3 summary)” value ([2]; probenecid at supraphysiological, isoproterenol at clinically relevant concentrations) of the same compound?
Its value is “no cell death”.

What about the “expression levels of NCX and SERCA2a” value ([3]; hearts after 10^−6 M perfusion, data not shown) of the same compound?
Its value is “no changes were found in the expression levels”.

And the “amount of phosphorylated or total phospholamban or ryanodine receptor” value ([3]; hearts after 5 minute perfusion of 10^−6 M)?
Its value is “no significant changes”.

And the diuretic effect [4]?
The diuretic effect was “strong diuretic effect”.

And the “inward Ca2+ current” value [5]?
The value was “No measurable inward Ca^2+ current was detected”.

What about the “peak change in EF” value ([6]; 75 mg/kg bolus IV) of the same compound?
Its value is 5.26±3.35.

What about the “peak change in EF” value ([6]; 100 mg/kg bolus IV) of the same compound?
The value was 8.40±2.80.

And the “time EF remained at an elevated state” value ([6]; 200 mg/kg IV, n=5)?
Its value is “at least 1 hour”.

What about the “average increase in EF over baseline” value ([6]; 200 mg/kg IV, n=5, evaluated for a longer period (at least 1 hour)) of the same compound?
Its value is 8.9±2.57.

What about the “echocardiographic changes (FIG. 1B)” value ([6]; FIG. 1B legend) of the same compound?
The value was “did not result in any echocardiographic changes”.

What about the “time after bolus injection at which increased contractility was noted” value ([6]; all doses at or above 75 mg/kg IV) of the same compound?
The value was ≤ 5 min.

What about the “estimated EC50 of dose dependent increase in contractility (EF)” value ([6]; bolus IV, measured at 5 minute intervals for 30 minutes total) of the same compound?
Its value is 49.33 mg/kg.

And the “EF after I/R injury” value ([7]; 100 mg/kg IP bolus, all treated mice)?
The value was “statistically significant increase in EF”.

What about the “change in EF at peak effect” value ([7]; 100 mg/kg IP, 10 minutes, mice with initial EF 50-60%) of the same compound?
The value was 19.72±4.10%.

And the “time of peak effect on EF” value ([7]; 100 mg/kg IP, mice with initial EF 50-60%)?
The value was 10 min.

What about the contractility over time ([7]; 100 mg/kg IP, mice with lower initial EFs (40-50%)) of the same compound?
Its contractility over time is “continued to enhance contractility throughout the full 30-minute experiment”.
